Laboratory results taken from patent US9670194B2 (Calitor Sciences, LLC, priority 2013, dated 2017).
Read-outs that look alike come from different tables or passages of the source.

Tests used:
PI3K (p110δ/p85α) (h) = PI3K (p110δ/p85α) (h) (Homo sapiens (Human), UniProt O00329); experiment: PI3K (p110δ/p85α) (h) non-radioactive HTRF kinase assay; format: biochemical
[1] = Compound stability in rat liver microsomes; format: in vitro ADME; settings: pH 7.4; for half-life at 5 μM: rat liver microsomes 0.5 mg protein/mL, compound 5 μM, NADPH 1.0 mM, 37° C.; for CLint scaled at 5 μM: rat liver microsomes, in vivo CLint extrapolated
[2] = Compound stability in human liver microsomes; format: in vitro ADME; settings: for half-life at 5 μM: human liver microsomes 0.5 mg protein/mL, compound 5 μM, NADPH 1.0 mM, 37° C.; for CLint scaled at 5 μM: human liver microsomes, in vivo CLint extrapolated
[3] = Pharmacokinetics after intravenous and oral administration in rats; format: in vivo, rat; settings: for clearance (CL) / AUC(0-t) / half-life / Vd: iv dosing; for bioavailability / AUC(0-t) / half-life / Vd: rat, plasma; for bioavailability: oral dose generally 5 or 10 mg/kg; for Vd: read-out: Vss

Sequence of PI3K (p110δ/p85α) (h) (O00329 whole entry): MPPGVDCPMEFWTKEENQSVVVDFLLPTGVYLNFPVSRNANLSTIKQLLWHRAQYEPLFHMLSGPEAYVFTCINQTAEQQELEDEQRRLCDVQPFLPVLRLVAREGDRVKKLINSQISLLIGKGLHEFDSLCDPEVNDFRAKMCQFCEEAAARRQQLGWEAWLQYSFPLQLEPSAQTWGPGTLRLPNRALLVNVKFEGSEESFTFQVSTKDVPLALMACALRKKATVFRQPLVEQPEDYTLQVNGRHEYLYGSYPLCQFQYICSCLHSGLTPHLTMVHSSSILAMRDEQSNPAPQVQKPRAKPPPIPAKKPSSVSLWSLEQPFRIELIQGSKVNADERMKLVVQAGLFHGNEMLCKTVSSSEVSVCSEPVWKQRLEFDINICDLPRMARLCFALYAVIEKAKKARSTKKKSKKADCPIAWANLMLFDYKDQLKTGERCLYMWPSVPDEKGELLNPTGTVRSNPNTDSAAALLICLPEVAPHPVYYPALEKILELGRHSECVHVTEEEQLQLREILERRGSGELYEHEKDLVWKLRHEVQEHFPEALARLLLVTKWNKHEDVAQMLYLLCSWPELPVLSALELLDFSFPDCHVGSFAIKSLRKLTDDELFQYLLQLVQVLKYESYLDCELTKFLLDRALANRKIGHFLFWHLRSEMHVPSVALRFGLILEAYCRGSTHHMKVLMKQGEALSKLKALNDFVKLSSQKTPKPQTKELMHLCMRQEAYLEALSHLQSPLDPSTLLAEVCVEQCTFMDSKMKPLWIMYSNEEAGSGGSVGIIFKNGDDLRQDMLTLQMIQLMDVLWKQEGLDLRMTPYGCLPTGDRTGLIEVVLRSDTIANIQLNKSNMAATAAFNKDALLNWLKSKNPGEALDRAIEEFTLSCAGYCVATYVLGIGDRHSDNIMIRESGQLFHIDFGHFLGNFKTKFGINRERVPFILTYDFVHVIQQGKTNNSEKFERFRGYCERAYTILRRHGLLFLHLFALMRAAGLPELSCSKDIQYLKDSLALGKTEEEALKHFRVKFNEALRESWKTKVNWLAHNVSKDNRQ
Sequence of PI3K (p110δ/p85α) (h) (P27986 whole entry partner): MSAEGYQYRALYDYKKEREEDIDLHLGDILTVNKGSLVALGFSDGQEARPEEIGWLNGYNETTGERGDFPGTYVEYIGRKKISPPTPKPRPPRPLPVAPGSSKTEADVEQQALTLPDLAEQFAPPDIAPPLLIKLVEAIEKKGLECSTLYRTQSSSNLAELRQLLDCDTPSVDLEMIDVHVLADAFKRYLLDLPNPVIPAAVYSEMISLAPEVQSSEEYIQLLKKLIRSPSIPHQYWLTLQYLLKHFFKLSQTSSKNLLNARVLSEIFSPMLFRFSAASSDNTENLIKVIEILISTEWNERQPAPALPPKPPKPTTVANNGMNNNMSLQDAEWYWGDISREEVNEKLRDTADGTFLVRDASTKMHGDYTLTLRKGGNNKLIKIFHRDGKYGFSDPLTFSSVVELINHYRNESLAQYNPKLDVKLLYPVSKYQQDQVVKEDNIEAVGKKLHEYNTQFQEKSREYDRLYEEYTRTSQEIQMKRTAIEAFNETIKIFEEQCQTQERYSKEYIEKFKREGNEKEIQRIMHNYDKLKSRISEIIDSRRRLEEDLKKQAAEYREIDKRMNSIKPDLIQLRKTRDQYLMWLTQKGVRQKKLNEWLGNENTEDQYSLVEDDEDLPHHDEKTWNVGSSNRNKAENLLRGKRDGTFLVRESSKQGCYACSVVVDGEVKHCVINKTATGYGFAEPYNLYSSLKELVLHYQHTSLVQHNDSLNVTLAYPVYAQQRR

## CC[C@H](Nc1ncnc(N)c1-c1noc(C)n1)c1nc2cccc(Cl)c2c(=O)n1C1CC1 [Ex. 12, (S)-2-(1-((6-amino-5-(5-methyl-1,2,4-oxadiazol-3-yl)pyrimidin-4-yl)amino)-propyl)-5-chloro-3-cyclopropylquinazolin-4(3H)-one]
PI3K (p110δ/p85α) (h)
  IC50: 48 nM
[1]
  half-life at 5 μM: 31 min
  CLint scaled at 5 μM: 80.2 mL/min/kg
[2]
  half-life at 5 μM: 20.6 min
  CLint scaled at 5 μM: 84.6 mL/min/kg
[3]; dose 1 mg/kg
  clearance (CL): 31.8 mL/min/kg
  AUC(0-t): 518 ng·h/mL
  half-life: 76.8 min
  Vd: 3.14 L/kg
[3]; iv dose 1 mg/kg
  bioavailability: 48.9%

## CC[C@H](Nc1ncnc(N)c1-c1ccon1)c1nc2cccc(Cl)c2c(=O)n1C1CC1 [Ex. 14, (S)-2-(1-((6-amino-5-(isoxazol-3-yl)pyrimidin-4-yl)amino)propyl)-5-chloro-3-cyclopropylquinazolin-4(3H)-one]
PI3K (p110δ/p85α) (h)
  IC50: 20 nM
[3]; dose 1 mg/kg
  clearance (CL): 46.7 mL/min/kg
  AUC(0-t): 362 ng·h/mL
  half-life: 45.6 min
  Vd: 2.18 L/kg
[3]; iv dose 1 mg/kg
  bioavailability: 23.1%

## CC[C@@H](Nc1ncnc(N)c1-c1nc(C)no1)c1nc2cccc(Cl)c2c(=O)n1C1CC1 [Ex. 19, (R)-2-(1-((6-amino-5-(3-methyl-1,2,4-oxadiazol-5-yl)pyrimidin-4-yl)amino)propyl)-5-chloro-3-cyclopropylquinazolin-4(3H)-one]
PI3K (p110δ/p85α) (h)
  IC50: > 3000 nM
[1]
  half-life at 5 μM: 19.7 min
  CLint scaled at 5 μM: 126 mL/min/kg
[2]
  half-life at 5 μM: 52.4 min
  CLint scaled at 5 μM: 47.4 mL/min/kg
[3]; dose 1 mg/kg
  clearance (CL): 127 mL/min/kg
  AUC(0-t): 132 ng·h/mL
  half-life: 51.6 min
  Vd: 6.98 L/kg
[3]; iv dose 1 mg/kg
  bioavailability: 5.49%

## CC[C@H](Nc1ncnc(N)c1-c1nnc(C)o1)c1nc2cccc(C)c2c(=O)n1C1CC1 [Ex. 20, (S)-2-(1-((6-amino-5-(5-methyl-1,3,4-oxadiazol-2-yl)pyrimidin-4-yl)amino)propyl)-3-cyclopropyl-5-methylquinazolin-4(3H)-one]
PI3K (p110δ/p85α) (h)
  IC50: 49 nM
[1]
  half-life at 5 μM: 9.27 min
  CLint scaled at 5 μM: 268 mL/min/kg
[2]
  half-life at 5 μM: 9.96 min
  CLint scaled at 5 μM: 249 mL/min/kg
[3]; dose 1 mg/kg
  clearance (CL): 77.3 mL/min/kg
  AUC(0-t): 215 ng·h/mL
  half-life: 63 min
  Vd: 6.35 L/kg
[3]; iv dose 1 mg/kg
  bioavailability: 79%

## CC[C@H](Nc1ncnc(N)c1-c1nc(C)no1)c1nc2cccc(C)c2c(=O)n1C1CC1 [Ex. 21, (S)-2-(1-((6-amino-5-(3-methyl-1,2,4-oxadiazol-5-yl)pyrimidin-4-yl)amino)-propyl)-3-cyclopropyl-5-methylquinazolin-4(3H)-one]
PI3K (p110δ/p85α) (h)
  IC50: 19 nM
[1]
  half-life at 5 μM: 25 min
  CLint scaled at 5 μM: 99.3 mL/min/kg
[2]
  half-life at 5 μM: 25.4 min
  CLint scaled at 5 μM: 97.7 mL/min/kg
[3]; dose 1 mg/kg
  clearance (CL): 55.8 mL/min/kg
  AUC(0-t): 292 ng·h/mL
  half-life: 96.6 min
  Vd: 6.24 L/kg
[3]; iv dose 1 mg/kg
  bioavailability: 57.5%

## CC[C@H](Nc1ncnc(N)c1-c1nc(C)no1)c1nc2ccccc2c(=O)n1-c1ccccc1F [Ex. 22, (S)-2-(1-((6-amino-5-(3-methyl-1,2,4-oxadiazol-5-yl)pyrimidin-4-yl)amino)propyl)-3-(2-fluorophenyl)quinazolin-4(3H)-one]
PI3K (p110δ/p85α) (h)
  IC50: 26 nM
[1]
  half-life at 5 μM: 7.95 min
  CLint scaled at 5 μM: 312 mL/min/kg
[2]
  half-life at 5 μM: 15.3 min
  CLint scaled at 5 μM: 163 mL/min/kg
[3]; dose 1 mg/kg
  clearance (CL): 159 mL/min/kg
  AUC(0-t): 104 ng·h/mL
  half-life: 51 min
  Vd: 9.46 L/kg
[3]; iv dose 1 mg/kg
  bioavailability: 29.8%

## CC[C@H](Nc1ncnc(N)c1-c1nnc(C)o1)c1nc2cccc(Cl)c2c(=O)n1-c1ccccc1C [Ex. 35, (S)-2-(1-((6-amino-5-(5-methyl-1,3,4-oxadiazol-2-yl)pyrimidin-4-yl)-amino)propyl)-5-chloro-3-(o-tolyl)quinazolin-4(3H)-one]
[1]
  half-life at 5 μM: 8.87 min
  CLint scaled at 5 μM: 280 mL/min/kg
[2]
  half-life at 5 μM: 37.9 min
  CLint scaled at 5 μM: 45.9 mL/min/kg
[3]; dose 0.5 mg/kg
  clearance (CL): 53 mL/min/kg
  AUC(0-t): 157 ng·h/mL
  half-life: 67.8 min
  Vd: 3.46 L/kg
[3]; iv dose 0.5 mg/kg
  bioavailability: 41.8%

## C[C@H](Nc1ncnc(N)c1-c1nnn(C)n1)c1nc2cccc(Cl)c2c(=O)n1C1CC1 [Ex. 42, (S)-2-(1-((6-amino-5-(2-methyl-2H-tetrazol-5-yl)pyrimidin-4-yl)amino)ethyl)-5-chloro-3-cyclopropylquinazolin-4(3H)-one]
[1]
  half-life at 5 μM: 25.3 min
  CLint scaled at 5 μM: 98.2 mL/min/kg
[2]
  half-life at 5 μM: 42.4 min
  CLint scaled at 5 μM: 41 mL/min/kg
[3]; dose 1 mg/kg
  clearance (CL): 82 mL/min/kg
  AUC(0-t): 203 ng·h/mL
  half-life: 54.6 min
  Vd: 5.15 L/kg
[3]; iv dose 1 mg/kg
  bioavailability: 33%

## CC[C@H](Nc1ncnc(N)c1-c1nnn(C)n1)c1nc2cccc(F)c2c(=O)n1-c1ccccc1 [Ex. 43, (S)-2-(1-((6-amino-5-(2-methyl-2H-tetrazol-5-yl)pyrimidin-4-yl)amino)-propyl)-5-fluoro-3-phenylquinazolin-4(3H)-one]
[1]
  half-life at 5 μM: 7.15 min
  CLint scaled at 5 μM: 347 mL/min/kg
[2]
  half-life at 5 μM: 7.12 min
  CLint scaled at 5 μM: 244 mL/min/kg
[3]; dose 1 mg/kg
  clearance (CL): 36.8 mL/min/kg
  AUC(0-t): 452 ng·h/mL
  half-life: 91.2 min
  Vd: 3.41 L/kg
[3]; iv dose 1 mg/kg
  bioavailability: 90%

## CC[C@H](Nc1ncnc(N)c1-c1ncn(C)n1)c1nc2cccc(Cl)c2c(=O)n1-c1ccccc1F [Ex. 45, (S)-2-(1-((6-amino-5-(1-methyl-1H-1,2,4-triazol-3-yl)pyrimidin-4-yl)amino)-propyl)-5-chloro-3-(2-fluorophenyl)quinazolin-4(3H)-one]
[1]
  half-life at 5 μM: 9 min
  CLint scaled at 5 μM: 276 mL/min/kg
[2]
  half-life at 5 μM: 10.7 min
  CLint scaled at 5 μM: 162 mL/min/kg
[3]; dose 1 mg/kg
  clearance (CL): 61.8 mL/min/kg
  AUC(0-t): 278 ng·h/mL
  half-life: 58.2 min
  Vd: 4.61 L/kg
[3]; iv dose 1 mg/kg
  bioavailability: 70.2%

## CC[C@H](Nc1ncnc(N)c1-c1nc(COC)n(C)n1)c1nc2cccc(Cl)c2c(=O)n1C1CC1 [Ex. 46, (S)-2-(1-((6-amino-5-(5-(methoxymethyl)-1-methyl-1H-1,2,4-triazol-3-yl)pyrimidin-4-yl)amino)propyl)-5-chloro-3-cyclopropylquinazolin-4(3H)-one]
[1]
  half-life at 5 μM: 3.86 min
  CLint scaled at 5 μM: 644 mL/min/kg
[2]
  half-life at 5 μM: 6.1 min
  CLint scaled at 5 μM: 285 mL/min/kg
[3]; dose 1 mg/kg
  clearance (CL): 55.8 mL/min/kg
  AUC(0-t): 300 ng·h/mL
  half-life: 42.6 min
  Vd: 3.65 L/kg
[3]; iv dose 1 mg/kg
  bioavailability: 20.2%

## CC[C@H](Nc1ncnc(N)c1-c1ccon1)c1nc2cccc(C)c2c(=O)n1C1CC1 [Ex. 47, (S)-2-(1-((6-amino-5-(isoxazol-3-yl)pyrimidin-4-yl)amino)propyl)-3-cyclopropyl-5-methylquinazolin-4(3H)-one]
[1]
  half-life at 5 μM: 7.63 min
  CLint scaled at 5 μM: 325 mL/min/kg
[2]
  half-life at 5 μM: 27.1 min
  CLint scaled at 5 μM: 91.6 mL/min/kg
[3]; dose 1 mg/kg
  clearance (CL): 6100 mL/min/kg
  AUC(0-t): 271 ng·h/mL
  half-life: 56.4 min
  Vd: 3.16 L/kg
[3]; iv dose 1 mg/kg
  bioavailability: 23.6%

## CC[C@H](Nc1ncnc(N)c1-c1ccon1)c1nc2cccc(F)c2c(=O)n1C1CC1 [Ex. 48, (S)-2-(1-((6-amino-5-(isoxazol-3-yl)pyrimidin-4-yl)amino)propyl)-3-cyclopropyl-5-fluoroquinazolin-4(3H)-one]
[1]
  half-life at 5 μM: 27 min
  CLint scaled at 5 μM: 91.8 mL/min/kg
[2]
  half-life at 5 μM: 136 min
  CLint scaled at 5 μM: 12.8 mL/min/kg
[3]; dose 1 mg/kg
  clearance (CL): 67.3 mL/min/kg
  AUC(0-t): 254 ng·h/mL
  half-life: 40.8 min
  Vd: 2.42 L/kg
[3]; iv dose 1 mg/kg
  bioavailability: 32.7%

## CC[C@@H](Nc1ncnc(N)c1-c1ccon1)c1nc2cccc(Cl)c2c(=O)n1C1CC1 [Ex. 49, (R)-2-(1-((6-amino-5-(isoxazol-3-yl)pyrimidin-4-yl)amino)propyl)-5-chloro-3-cyclopropylquinazolin-4(3H)-one]
[1]
  half-life at 5 μM: 2.43 min
  CLint scaled at 5 μM: 1020 mL/min/kg
[2]
  half-life at 5 μM: 43.8 min
  CLint scaled at 5 μM: 39.7 mL/min/kg
[3]; dose 1 mg/kg
  clearance (CL): 85.3 mL/min/kg
  AUC(0-t): 196 ng·h/mL
  half-life: 39.6 min
  Vd: 4.1 L/kg
[3]; iv dose 1 mg/kg
  bioavailability: 4.37%

## CC[C@H](Nc1ncnc(N)c1-c1ncn(C)n1)c1nc2cccc(Cl)c2c(=O)n1-c1ccc(F)cc1 [Ex. 50, (S)-2-(1-((6-amino-5-(1-methyl-1H-1,2,4-triazol-3-yl)pyrimidin-4-yl)amino)propyl)-5-chloro-3-(4-fluorophenyl)quinazolin-4(3H)-one]
[1]
  half-life at 5 μM: 13.3 min
  CLint scaled at 5 μM: 186 mL/min/kg
[2]
  half-life at 5 μM: 11.4 min
  CLint scaled at 5 μM: 152 mL/min/kg
[3]; dose 1 mg/kg
  clearance (CL): 86.7 mL/min/kg
  AUC(0-t): 192 ng·h/mL
  half-life: 68.4 min
  Vd: 3.96 L/kg
[3]; iv dose 1 mg/kg
  bioavailability: 28.3%

## CC[C@H](Nc1ncnc(N)c1-c1nc(C)co1)c1nc2cccc(Cl)c2c(=O)n1C1CC1 [Ex. 52, (S)-2-(1-((6-amino-5-(4-methyloxazol-2-yl)pyrimidin-4-yl)amino)propyl)-5-chloro-3-cyclopropylquinazolin-4(3H)-one]
[1]
  half-life at 5 μM: 6.71 min
  CLint scaled at 5 μM: 370 mL/min/kg
[2]
  half-life at 5 μM: 7.72 min
  CLint scaled at 5 μM: 322 mL/min/kg
[3]; dose 1 mg/kg
  clearance (CL): 85.7 mL/min/kg
  AUC(0-t): 194 ng·h/mL
  half-life: 73.2 min
  Vd: 6.07 L/kg
[3]; iv dose 1 mg/kg
  bioavailability: 21.3%

## CC[C@H](Nc1ncnc(N)c1-c1nc(C(N)=O)n(C)n1)c1nc2cccc(Cl)c2c(=O)n1C1CC1 [Ex. 58, (S)-3-(4-amino-6-((1-(5-chloro-3-cyclopropyl-4-oxo-3,4-dihydroquinazolin-2-yl)propyl)amino)pyrimidin-5-yl)-1-methyl-1H-1,2,4-triazole-5-carboxamide]
[1]
  half-life at 5 μM: 122 min
  CLint scaled at 5 μM: 20.4 mL/min/kg
[2]
  half-life at 5 μM: 61.8 min
  CLint scaled at 5 μM: 28.1 mL/min/kg
[3]; dose 1 mg/kg
  clearance (CL): 26.2 mL/min/kg
  AUC(0-t): 580 ng·h/mL
  half-life: 143 min
  Vd: 5.03 L/kg
[3]; iv dose 1 mg/kg
  bioavailability: 106%
